Cytotoxicity data for 71 compounds are collected here from ChEMBL document CHEMBL3507680, “University of Dundee, Gates Library screen for HepG2 cell viability”.

A short description of the series: Human HepG2 cell viability assay in 384 well format. In kind it is toxicity, cell-based. Particulars: HepG2 cells, read-out: Inhibition. Also on record: dose 125 nL, time 70.5 hour; concentration not given beside the values.

`Cc1nn(C)c2c(=O)n(CC(=O)NC3CCCCC3)ccc12`: the cytotoxicity at 70.5 h was -1.28%.
With `CCC(C)NC(=O)Cn1ccc2sc(C)cc2c1=O` (stereo unspecified) the figure was -0.388%; with `CN1CCCC1CCNC(=O)Nc1ccccc1` (stereo unspecified), -5%; with `CC(=O)N1CC=C(n2c(=O)[nH]c3ccccc32)CC1`, -5.58%.
With `Cc1ccccc1CSc1ncccc1C(=O)N(C)C` the figure was -2.93%.
The value for `COc1ccc(C(=O)Nc2cccc(C(N)=O)c2)c(OC)n1` was 9.82%; that for `COc1ccc(C(=O)N(CCO)Cc2ccccc2)c(OC)n1` was 21.2%; that for `CSc1ncccc1C(=O)NCc1ccc(N(C)C)cc1` was 40.2%.
For `O=C(Nc1cccc2c1CCCC2)c1cccnc1N1CCCNCC1`, the cytotoxicity at 70.5 h is -5.23%.
The value for `CCC(CC)NC(=O)c1cccnc1N1CCCC1c1ccccn1` (stereo unspecified) was 16.4%; that for `CCCNc1ccc(C(=O)NCCc2cccc(Cl)c2)cn1` was -4.77%; that for `O=C(NC[C@@H]1CCCO1)c1cccnc1N1CCCC1c1ccccn1` (stereo partly specified) was -3.08%.
With `O=C1CC2(CCN(C(=O)c3ccccn3)CC2)Oc2c(Cl)cc(Cl)cc21` the figure was -6.72%; with `COc1ccc2c(c1)OC1(CCN(Cc3ccc(C)cc3)CC1)CC2=O`, 7.29%; with `CN(C)C(=O)CN1CCC2(CC1)CC(=O)c1ccc3ccccc3c1O2`, -6.26%.
With `O=C(c1cccnc1SCc1ccccc1)N1CCOCC1` the figure was 0.0391%; with `O=C(NCCCn1ccnc1)c1cccnc1OCC(F)(F)F`, 4.36%; with `CCCSc1ncccc1C(=O)NCc1ccc(S(N)(=O)=O)cc1`, -4.05%.
Regarding `O=C(N[C@H]1CCCC[C@@H]1O)c1cccc(-c2nc3ccccc3[nH]2)c1`, the cytotoxicity at 70.5 h was -2.51%.
With `O=C(NC[C@H]1CCCC[C@H]1O)c1ccc2nc(-c3ccco3)[nH]c2c1` the figure was -1.94%; with `CCC(C)CNC(=O)[C@@H]1CCCN1c1nccc(Nc2ccccc2)n1` (stereo partly specified), 1.56%; with `CC(=O)N1N=C(c2ccccc2)OC1C(=O)NCCc1ccc(C)cc1` (stereo unspecified), 0.438%.
The value for `CC(=O)N1N=C(c2ccccc2)OC1C(=O)NCCc1ccc(Cl)cc1` (stereo unspecified) was 8.17%; that for `CC(=O)N1N=C(c2ccccc2)OC1C(=O)N(C)Cc1ccccc1` (stereo unspecified) was -4.44%.
With `Cc1ccc(C)c(-n2ncc(C(=O)NCC3COC(C)(C)O3)c2N)c1` (stereo unspecified) the figure was 18.9%; with `CC(C)c1ccc(-n2ncc(C(=O)N(C)C3CCN(C)CC3)c2N)cc1`, -2.55%.
With `CC(=O)N1N=C(c2cccs2)OC1C(=O)NCCc1cccc(Cl)c1` (stereo unspecified), the cytotoxicity at 70.5 h was 28.8%.
The value for `CC(=O)N1N=C(Cc2ccccc2)OC1C(=O)NCC(=O)OC(C)(C)C` (stereo unspecified) was -4.37%; that for `CC(=O)N1N=C(c2ccco2)OC1C(=O)NCCc1ccc(F)cc1` (stereo unspecified) was 0.102%; that for `COc1ccc(NC(=O)C2OC(c3cccs3)=NN2C(C)=O)cc1` (stereo unspecified) was -1.98%.
For `CC(=O)N1N=C(c2cccs2)OC1C(=O)Nc1ccc(C)cc1` (stereo unspecified), the cytotoxicity at 70.5 h came out at 1.28%.
The value for `CC(=O)N1N=C(c2cccs2)OC1C(=O)NCc1ccc(C)o1` (stereo unspecified) was -1.09%; that for `Nc1c(N2CCCC2)ncnc1N1CCOCC1` was 20.6%.
Take `CC1CCN(C(=O)c2cnc3cc(C(=O)N(C)C)n(C)c3c2)CC1`: the cytotoxicity at 70.5 h was determined as 6.93%.
The value for `Nc1c(N2CCOCC2)ncnc1N1CCOCC1` was 0.518%.
With `COc1c(C(=O)N2CCOCC2)cnc2c1c(C)nn2C` the figure was 0.987%; with `Cc1nc2cc(C(=O)N(CCC#N)CC3CCCO3)ccc2[nH]1` (stereo unspecified), -1.19%; with `CC(C)(Oc1ccc(C(N)=O)cc1)C(=O)N(CCC#N)CC1CCCO1` (stereo unspecified), 6.27%.
With `Cc1nn(-c2ccccc2Cl)c(C)c1CCC(=O)NCCS(C)(=O)=O`, the cytotoxicity at 70.5 h came out at 1.1%.
Consider `CC(C)(C)C(=O)CN1Cc2ccccc2NCCC1=O`, for which the cytotoxicity at 70.5 h is 0.78%.
With `O=C1CCNc2cc3c(cc2CN1CC1CC1)OCO3` the figure was 0.558%; with `COC(=O)CN1Cc2cc3c(cc2NCCC1=O)OCO3`, -9.74%.
With `CCCC(O)CN1CC(C)(C)CN(C(=O)c2ccccc2)CC1=O` (stereo unspecified) the figure was -10.1%; with `CC1(C)CNC(=O)CN(C(=O)CCc2ccccc2)C1`, -3.7%; with `CCCS(=O)(=O)N1CC(=O)N(CCCc2ccccc2)CC(O)C1` (stereo unspecified), 10.8%.
The value for `O=C1CN(S(=O)(=O)CC(F)(F)F)CC(O)CN1CCCc1ccccc1` (stereo unspecified) was -3.16%.
Consider `COc1ccccc1CN1CC(OC)CN(C(=O)CC(C)C)CC1=O` (stereo unspecified), for which the cytotoxicity at 70.5 h is -5.03%.
The value for `COc1ccccc1CN1CC(OC)CN(C(=O)OCC(C)C)CC1=O` (stereo unspecified) was -3.02%; that for `CCCC(O)CN1CC(C)(C)CN(C(=O)c2ccc(Cl)cc2)CC1=O` (stereo unspecified) was -9.8%.
On to `CC1(C)CNC(=O)CN(C(=O)Cc2ccccc2)C1`, for which the cytotoxicity at 70.5 h was 0.101%.
With `CCCC(O)CN1CC(C)(C)CN(C(=O)c2ccc(SC)cc2)CC1=O` (stereo unspecified) the figure was -8.02%; with `O=S1(=O)c2cnccc2OC(COc2ccccc2)CN1CC1CC1` (stereo unspecified), -1.49%.
The value for `CC(C)(C)CN1CC(COc2ccccc2)Oc2ccncc2S1(=O)=O` (stereo unspecified) was 10.8%.
With `CCOC(=O)[C@H]1[C@@H](O)C(=O)N(C)C12CCN(C(=O)CC(C)C)CC2` the figure was -6.09%; with `CCOC(=O)[C@H]1[C@@H](O)C(=O)N(C)C12CCN(S(=O)(=O)CC)CC2`, -10.3%.
As for `Cc1cc(C(=O)N2CCCC(C)C2)ccc1NCC(=O)N1CCOCC1` (stereo unspecified), the cytotoxicity at 70.5 h is -2.64%.
With `O=C(Nc1cc(C(F)(F)F)c[nH]c1=O)N1CCSCC1` the figure was -8.45%; with `CC1CN(CCc2ccccn2)CCN1c1ccc2nncn2n1` (stereo unspecified), -3.22%; with `Cn1cc(C(=O)Nc2cc(F)ccc2OCC2CCCO2)ccc1=O` (stereo unspecified), -7.6%.
With `Cc1ccc(NC2CCN(C(=O)c3cscn3)CC2)nn1`, the cytotoxicity at 70.5 h amounted to 0.539%.
Take `Cc1nnc2ccc(N3CCN(CCc4ccccn4)CC3)nn12`: the cytotoxicity at 70.5 h is -0.337%.
With `NC(=O)c1cc(C2CCCN(C(=O)CCc3ccncc3)C2)n[nH]1` (stereo unspecified) the figure was -4.91%; with `Cc1nn(C)c(C)c1C1COCCN1C(=O)CCc1ccccc1` (stereo unspecified), -1.71%; with `O=C(CCN1CCN(c2ccc3nncn3n2)CC1)N1CCCCC1`, -5.89%.
The value for `CCN(Cc1ccc2c(c1)OCO2)S(=O)(=O)N(C)C(C)C` was -1.76%; that for `CCN(CC)S(=O)(=O)N(C)Cc1ccc2c(c1)OCCO2` was -2.26%; that for `CCc1nnc(CN2CCCCC2Cn2cncn2)o1` (stereo unspecified) was 10.6%.
In the case of `c1ccc(CCN2CCOC(CNc3cccnn3)C2)nc1` (stereo unspecified), the cytotoxicity at 70.5 h was -12.5%.
On to `Cc1nc(C2CCCN(C(=O)CCCn3cccn3)C2)sc1C` (stereo unspecified), for which the cytotoxicity at 70.5 h was -15.3%.
The value for `O=C(O)[C@@H]1CCCN1c1nccc(Nc2ccccc2)n1` was 16%; that for `O=C(O)c1csc(NCCc2ccccc2)n1` was -1.2%.
